# Experimental data published in patent US11911469B2, “Combination of ACAT1 inhibitor and checkpoint antibody for treating cancer” (Shanghai Institutes for Biological Sciences, Chinese …, priority 2016, dated 2024).
# Experiments:
# OT-I CTLs = test: Cytotoxicity of OT-I CTLs against antigen-pulsed EL-4 cells (LDH assay); type: cell-based, mouse; details: for cytotoxicity of CD8+ T cells: OT-I CTLs pretreated with compound or vehicle
# Method: To generate mature Cytotoxic T lymphocytes (CTLs), splenocytes isolated from Acat1^CKO-OT-I mice or WT OT-I mice were stimulated with OVA257-264 (N4) for 3 days in the presence of 10 ng/ml IL-2. Cells were centrifuged and cultured in fresh medium containing 10 ng/ml IL-2 for 2 more days, after which most of the cells in the culture were CTLs. To measure CD8^+ T-cell cytotoxicity, EL-4 cells were pulsed with 2 nM antigenic peptide (N4, A2, T4, G4, R4 or Catnb) for 30 minutes. After washing EL-4 cells and CTLs three times with PBS, we mixed CTLs and antigen-pulsed EL-4 cells (1×10^5) in the killing medium (phenol free-RPMI 1640, 2% FBS), at the ratio of 1:1, 1:2 and 1:5, respectively. After 4 hours, the cytotoxic efficiency was measured by quantifying the release of endogenous lactate dehydrogenase (LDH) from EL-4 cells using a CytoTox 96 Non-Radioactive Cytotoxicity kit (Promega).
# (§1) CD8^+ T cells were pretreated with vehicle (dimethylsulfoxide, DMSO), CP-113,818 or K604. Then the cells were stimulated with 5 μg ml^−1 plate-bound anti-CD3/CD28, and cytokine and cytolytic granule production was studied. Cytotoxicity of OT-I CTLs pretreated with CP-113,818 or K604 or vehicle was also studied.
# (§2) To study ACAT1 inhibitors in cancer immunotherapies in mice, melanoma-bearing mice were treated with a potent ACAT-1 inhibitor, avasimibe (Ava), or DMSO control, and tumour size and survival were studied. A combined therapy (avasimibe and anti-PD-1) or monotherapies (avasimibe or anti-PD-1) were also studied and compared in treating melanoma. In a lung cancer model, Lewis lung carcinoma-bearing mice were treated with avasimibe or DMSO control, and tumour multiplicity and survival were studied. Cytokine productions of stimulated human (h) CD8^+ T cells pretreated with avasimibe, CP-113,818, or DMSO. CTL cytotoxicity after avasimibe treatment was measured by the LDH assay. OT-I CTLs were pretreated with avasimibe or vehicle for 6 h and then incubated with EL-4 cells pulsed with OVA257-264 peptide for 4 h.
# CD8+ T cells = test: Cytokine and cytolytic granule production of stimulated CD8+ T cells; type: cell-based, mouse; details: pretreated cells stimulated with 5 μg ml−1 plate-bound anti-CD3/CD28; versus vehicle (DMSO)
# Method: Peripheral T cells were isolated from mouse spleen and draining lymph nodes by a CD8^+ or CD4^+ T cell negative selection kit (Stem cell). To analyse the tumour-infiltrating T cells, tumours were first digested by collagenase IV (sigma), and tumour-infiltrating leukocytes were isolated by 40-70% percoll (GE) gradient centrifugation. To measure the effector function of CD8^+ T cells, the isolated cells were first stimulated with 1 μM ionomycin and 50 ng/ml PMA for 4 hours in the presence of 5 μg/ml BFA, and then stained with PERCP-α-CD8a. Next, cells were fixed with 4% PFA and stained with FITC-α-Granzyme B, APC-α-IFNγ and PE-α-TNFα. In general, to gate the cytokine or granule producing cells, T cells without stimulation or stained with isotype control antibody were used as negative controls. This gating strategy is applicable for most of the flow cytometric analyses. To detect the MDSCs (myeloid-derived suppressor cells) in the tumour, the percoll isolated leukocyte were stained with α-CD45, α-CD11b and α-Ly6G (Gr1), the CD45^+ population was gated, after which the MDSC population (CD11b^+ Gr1^+) in CD45^+ were gated.
# as §1
# B16F10 cells = test: Skin melanoma mouse model, avasimibe therapy; type: in vivo; details: melanoma-bearing mice; avasimibe 15 mg/kg intraperitoneally every 2 days from Day 10; versus DMSO control
# Method: B16F10 cells were washed three times with PBS, filtered by a 40 μm strainer. […] From Day 10, tumour size was measured every 2 days, and animal survival rate was recorded every day. Tumour size was calculated as length×width. Mice with tumour size larger than 20 mm at the longest axis were euthanized for ethical consideration. To analyse effector function of tumour-infiltrating T cells, mice were euthanized on Day 16. In the avasimibe therapy, on Day 10 mice bearing tumour of similar size were randomly divided into two groups. From Day 10, avasimibe was injected intraperitoneally to the mice at the dose of 15 mg/kg every 2 days.
# as §2, with “OT-I CTLs were pretreated with avasimibe or vehicle for 6 h and then incubated with EL-4 cells pulsed with OVA257-264 peptide for 4 h.” left out
# human CD8+ T cells = test: Human CD8+ T-cell cytokine production; type: cell-based; details: PBMCs pretreated 12 hours, stimulated with plate-bound α-CD3 and α-CD28 (5 μg/ml each) for 24 hours; versus DMSO
# Method: Human peripheral blood mononuclear cells (PBMCs) from healthy donators were stimulated with 5 μg/ml PHA (Sigma) for 2 days and then rested for 1 day. Cells were pretreated with vehicle (DMSO), CP113, 818 or avasimibe for 12 hours and then stimulated with plate-bound α-CD3 (5 μg/ml) and α-CD28 (5 μg/ml) antibodies for 24 hours. Intracellular staining and flow cytometry were used to assess cytokines production of CD8^+ T cells. […] A combined therapy (avasimibe and anti-PD-1) or monotherapies (avasimibe or anti-PD-1) were also studied and compared in treating melanoma. In a lung cancer model, Lewis lung carcinoma-bearing mice were treated with avasimibe or DMSO control, and tumour multiplicity and survival were studied. […] CTL cytotoxicity after avasimibe treatment was measured by the LDH assay. OT-I CTLs were pretreated with avasimibe or vehicle for 6 h and then incubated with EL-4 cells pulsed with OVA257-264 peptide for 4 h.
# [1] = system: Lewis lung carcinoma (LLC); test: Lewis lung carcinoma (LLC) model, avasimibe therapy; type: in vivo, mice; details: avasimibe 15 mg/kg intraperitoneally every 3 days, Day 10 to Day 35; versus DMSO control
# Method: The LLC cells were washed twice with PBS and filtered by a 40 μm strainer. After which, the LLC cells (2×10^6) were intravenously injected into WT or Acat1^CKO mice at the age of 8-10 weeks. To detect the tumour multiplicity in the lung, the mice were euthanized at Day 35 post tumour inoculation and tumour numbers in the lung were counted. In the avasimibe therapy, on Day 10 mice were randomly divided into two groups. From Day 10 to Day 35 post tumour inoculation, avasimibe was injected intraperitoneally to the mice at the dose of 15 mg/kg every 3 days.
# as §2
# [2] = doses at least up to 750 mg four times daily (i.e., 3000 mg/day); cited from earlier work
SMILES,cytotoxicity of CD8+ T cells (OT-I CTLs),cytolytic granule and cytokine productions of CD8+ T cells (CD8+ T cells),other results
"CSc1cc(C)nc(SC)c1NC(=O)CN1CCN(CCSc2nc3ccccc3[nH]2)CC1 [K604, 2-[4-[2-(benzimidazol-2-ylthio)ethyl]piperazin-1yl]-N-[2,4-bis(methylthio)-6-methyl-3-pyridyl]acetamide]",augmented,augmented,
CCN(CC)CCO[C@H]1CC[C@@]2(C)C(=CC[C@@H]3[C@@H]2CC[C@]2(C)C(=O)CC[C@@H]32)C1 [U18666A],,significantly decreased,
"CCCCCCCC[C@H](SCCCCCC)C(=O)Nc1c(SC)cc(C)nc1SC [CP-113,818, (S)-N-(2,4-Bis(methylthio)-6-methylpyridin-3-yl)-2-(hexylthio)decanoic acid amide]",augmented,augmented,
CC[C@H](C)C(=O)O[C@H]1C[C@@H](C)C=C2C=C[C@H](C)[C@H](CC[C@@H]3C[C@@H](O)CC(=O)O3)[C@H]21 [Lovastatin],,significantly decreased,
"CC(C)c1cc(C(C)C)c(CC(=O)NS(=O)(=O)Oc2c(C(C)C)cccc2C(C)C)c(C(C)C)c1 [avasimibe, [2,6-di(propan-2-yl)phenyl] N-[2-[2,4,6-tri(propan-2-yl)phenyl]acetyl]sulfamate]",,,"effector function of mouse CD8+ T cells ex vivo (CTL cytotoxicity, LDH assay) (OT-I CTLs; OT-I CTLs pretreated for 6 h, then incubated with OVA257-264 pulsed EL-4 cells for 4 h): enhance; survival time (B16F10 cells): prolonged; tumour growth (B16F10 cells): inhibited; cytokine production of human CD8+ T cells (human CD8+ T cells): enhanced; antitumor effect in Lewis lung carcinoma (tumour multiplicity and survival) [1]: good antitumor effect; tolerability in adult human subjects [2]: well tolerated"
